Values after ≈ are worked out from the molar mass of the structure shown.

What is called solubility is the dissolved amount per volume that the medium holds. A high value points to much dissolved substance.

The data set in a line: Solubility of 1PBC in aqueous solution. Format: physicochemical.

For `N#Cc1c(C(F)(F)F)cc(O)n2c1nc1ccccc12` [1PBC], the solubility is around 100 µM (≈ 27.7 µg/mL).

The values above are taken from article PMC9120017, “Inhibition mechanism of the chloride channel TMEM16A by the pore blocker 1PBC” (Nature Communications, 2022).
